Experimental data from patent US20250073146A1, “MIXED SURFACTANT FOR PREPARING TRANSPARENT MICROEMULSION AND FINE NANOEMULSION, AND COSMETIC COMPOSITION PREPARED USING THE SAME” (BIOBEAUTECH Co., Ltd., priority 2023, published 2025).

Experiment: HLB of surfactant
Format: physicochemical

Row | Substance | average HLB
1 | polyglyceryl-10 oleate | 12.5
2 | sucrose distearate | 6.3
